Results published in patent US8895032B2, “Dendritic nano-antioxidants” (Central Michigan University, priority 2009, dated 2014).

Legend:
Type in all cases: biochemical
[1] = tested on: Human LDL; test: Protection of LDL from AAPH oxidation (agarose gel electrophoresis); settings: 37° C.
[2] = beta-carotene-linoleate assay; settings: 50° C., 180 min, 470 nm
Text: The ability of the dendritic antioxidants 1, 2, and 3 to protect linoleic acid against free radical damage was examined by the beta-carotene-linoleate model (Jayaprakasha, G. K., et al. Food Chem. 2001, 73, 285, incorporated herein by reference in its entirety). In the absence of an antioxidant, hydroperoxides formed from linoleic acid oxidation bleach the highly unsaturated beta-carotene by a free-radical-mediated phenomenon. The bleaching of the reddish-orange color of beta-carotene was monitored at 470 nm in the presence of various concentrations of antioxidant. The % absorbance (corrected for control without antioxidant) was determined at each antioxidant concentration after incubation at 50° C. for 180 min. The % A470 nm values were determined as follows: % A470 nm=[(At(180 min)/At(0 min))×100]−[(Ac(180 min)/Ac(0 min))×100], wherein At(180 min)=absorbance at 470 nm of antioxidant sample incubated at 50° C. for 180 min, At(0 min)=absorbance at 470 nm of antioxidant sample incubated at 50° C. for 0 min, Ac(180 min)=absorbance at 470 nm of control sample (without antioxidant) incubated at 50° C. for 180 min, and Ac(0 min)=absorbance at 470 nm of control sample (without antioxidant) incubated at 50° C. for 0 min. […] In FIG. 24, protection of linoleic acid from oxidation by various antioxidants is shown for compound 1 (□), compounds 2 and 3 (•), quercetin (x), and Trolox (Δ).

[3] = tested on: plasmid DNA pBR 322; test: Protection of plasmid DNA from AAPH damage (agarose electrophoresis); settings: 10 mM AAPH, 37° C., 4 h

SMILES: COc1cc(CN(Cc2ccc(CN(Cc3cc(OC)c(O)c(OC)c3)Cc3cc(OC)c(O)c(OC)c3)cc2)Cc2cc(OC)c(O)c(OC)c2)cc(OC)c1O [Compound 1]
- protection of LDL from AAPH free radicals (anodic migration) ([1]; 10 mM AAPH, 18 h): most efficient in protecting LDL
- only concentration effective in protecting LDL ([1]; 20 mM AAPH, 21 h): 30 µM
- protection of linoleic acid from oxidation [2]: most effective
- DNA protection ([3]; 5 μM antioxidant): Some protection
- DNA protection (S band intensity) ([3]; 11-45 μM antioxidant): well protected
- DNA protection ([3]; below 5 μM antioxidant): No protection

SMILES: Cc1c(C)c2c(c(C)c1O)CCC(C)(C(=O)O)O2 (stereo not drawn) [Trolox, 6-hydroxy-2,5,7,8-tetramethylchroman-2-carboxylic acid]
- protection of LDL at all antioxidant concentrations ([1]; 1-30 μM, 20 mM AAPH, 21 h): ineffective
- protection of linoleic acid from oxidation [2]: more effective than compounds 2 and 3 (and quercetin) at lower concentrations
- DNA protection at all concentrations used ([3]; 0.35-45 μM): ineffective
